Common to all, as to experiment: Antibacterial activity (MIC), standard method of the Japan Society of Chemotherapy
Common to all, as to type: cell-based

One assay deals with E. coli, NIHJ. The protocol: (§1) The antibacterial activity of each compound of the present invention was measured in accordance with the standard method specified by the Japan Society of Chemotherapy, with the results shown in the following table as MIC values (μg/ml).
The subject of a further assay is Pr. mirabilis, IFO-3849. The protocol:
as §1

A further assay relates to Pr. vulgaris, 08601. The method, then: as §1
A further assay deals with Ps. aeruginasa, 32121. The method, then: as §1
A further assay relates to Ps. aeruginosa, 32104. The method, then:
as §1

For the next assay, the system named is S. aureus, 209P. The protocol:
as §1

A further assay has as its system S. aureus, 870307. The method, then: as §1
In another assay the test system is S. epidermidis, 56500. The protocol:
as §1

A further assay deals with S. flexneli, 2A 5503. The protocol:
as §1

A further assay has as its system S. maltophilia, IID-1275. The method, then:
as §1

In another assay the test system is S. pneumoniae, J24. The protocol: as §1
For a further assay, the system named is Ser. marcescens, 10100. The method, then:
as §1

Assay [1] concerns Str. faecalis, ATCC-19433. The method, then:
as §1

A further assay has as its system Str. pyogenes, G-36. The protocol:
as §1

Where [2] appears, read: Escherichia coli, read-out: MIC.
Where [3] appears, read: Proteus mirabilis, IFO3849, read-out: MIC.
Setting [4] is: Proteus vulgaris, read-out: MIC.
Where [5] appears, read: Pseudomonas aeruginosa, read-out: MIC.
Setting [6] is: Staphylococcus aureus, read-out: MIC.
[7] abbreviates: Staphylococcus epidermidis, read-out: MIC.
The mark [8] stands for this setting: Stenotrophomonas maltophilia, IID1275, read-out: MIC.
[9] abbreviates: Streptococcus pneumoniae, read-out: MIC.
Where [10] appears, read: Serratia marcescens, read-out: MIC.
Where [11] appears, read: Enterococcus faecalis, ATCC19433, read-out: MIC.
Setting [12] is: Streptococcus pyogenes, G36, read-out: MIC.

Converted amounts (≈) assume the structure as drawn. Like-named read-outs stand apart in the source and are kept apart here. Bounds are passed on as bounds.

In general, MIC refers to the lowest concentration that inhibits growth of the organism.

For `Cc1c(N2CCC(C3(N)CC(F)C3)C2)c(F)c(N)c2c(=O)c(C(=O)O)cn([C@@H]3C[C@@H]3F)c12` (stereo partly drawn) [Inventive Example 1, 5-Amino-7-[3-(3-amino-1-fluorocyclobutan-3-yl)pyrrolidin-1-yl]-6-fluoro-1-[2-(S)-fluoro-1-(R)-cyclopropyl]-8-methyl-1,4-dihydro-4-oxoguinoline-3-carboxylic acid], the minimum inhibitory concentration (MIC) entry in the assay on E. coli, NIHJ was “≦0.003 μg/ml”; in the assay on Pr. mirabilis, IFO-3849, 0.025 mg/L (≈ 0.0555 µM); against Pr. vulgaris, 08601, 0.013 mg/L (≈ 0.0289 µM); in the assay with Ps. aeruginasa, 32121 it was 0.05 mg/L (≈ 0.111 µM); in the assay with Ps. aeruginosa, 32104, 0.20 mg/L (≈ 0.444 µM); against S. aureus, 209P, “≦0.003 μg/ml”. For the same molecule, the MIC against S. aureus, 870307 is 0.013 mg/L (≈ 0.0289 µM); in the assay on S. epidermidis, 56500 it was “≦0.003 μg/ml”; against S. flexneli, 2A 5503 (S. flexneli, 2A 5503), “≦0.003 μg/ml”; against S. maltophilia, IID-1275 it was 0.05 mg/L (≈ 0.111 µM); in the assay on S. pneumoniae, J24, “≦0.003 μg/ml”; in the assay on Ser. marcescens, 10100, 0.10 mg/L (≈ 0.222 µM). For the same molecule, the MIC was 0.025 mg/L (≈ 0.0555 µM) in assay [1] and “≦0.003 μg/ml” against Str. pyogenes, G-36.

On to `COc1c(N2CCC(C3(N)CC(F)(F)C3)C2)c(F)cc2c(=O)c(C(=O)O)cn([C@@H]3C[C@@H]3F)c12` (stereo partly drawn) [Inventive Example 3, 7-[3-(3-Amino-1,1-difluorocyclobutan-3-yl)pyrrolidin-1-yl]-6-fluoro-1-[2-(S)-fluoro-1-(R)-cyclopropyl]-8-methoxy-1,4-dihydro-4-oxoquinoline-3-carboxylic acid], for which the MIC is 0.013 mg/L (≈ 0.0277 µM) in the assay with E. coli, NIHJ (setting [2]); 0.1 mg/L (≈ 0.213 µM) in the assay on Pr. mirabilis, IFO-3849 (setting [3]); 0.025 mg/L (≈ 0.0533 µM) in the assay with Pr. vulgaris, 08601 (setting [4]); 0.39 mg/L (≈ 0.831 µM) in the assay with Ps. aeruginasa, 32121 (read-out: MIC); 0.78 mg/L (≈ 1.66 µM) in the assay on Ps. aeruginosa, 32104 (setting [5]); not above 0.003 mg/L with S. aureus, 209P (setting [6]). Further, the minimum inhibitory concentration (MIC) in the assay on S. aureus, 870307 (setting [6]) was 0.025 mg/L (≈ 0.0533 µM); in the assay with S. epidermidis, 56500 (setting [7]) it was 0.013 mg/L (≈ 0.0277 µM); in the assay with S. flexneli, 2A 5503, 0.025 mg/L (≈ 0.0533 µM); with S. maltophilia, IID-1275 (setting [8]), 0.2 mg/L (≈ 0.426 µM); with S. pneumoniae, J24 (setting [9]) it was 0.006 mg/L (≈ 0.0128 µM); in the assay with Ser. marcescens, 10100 (setting [10]), 0.39 mg/L (≈ 0.831 µM). The MIC in assay [1] (setting [11]) was determined as 0.025 mg/L (≈ 0.0533 µM); with Str. pyogenes, G-36 (setting [12]), 0.006 mg/L (≈ 0.0128 µM).

With `Cc1c(N2CCC(C3(N)CC(F)(F)C3)C2)c(F)c(N)c2c(=O)c(C(=O)O)cn([C@@H]3C[C@@H]3F)c12` (stereo partly drawn) [Inventive Example 5, 5-Amino-7-[3-(3-amino-1,1-difluorocyclobutan-3-yl)pyrrolidin-1-yl]-6-fluoro-1-[2-(S)-fluoro-1-(R)-cyclopropyl]-8-methyl-1,4-dihydro-4-oxoguinoline-3-carboxylic acid], the MIC is 0.006 mg/L (≈ 0.0128 µM) against E. coli, NIHJ; 0.05 mg/L (≈ 0.107 µM) in the assay on Pr. mirabilis, IFO-3849; 0.05 mg/L (≈ 0.107 µM) against Pr. vulgaris, 08601; 0.20 mg/L (≈ 0.427 µM) in the assay on Ps. aeruginasa, 32121; 0.39 mg/L (≈ 0.833 µM) with Ps. aeruginosa, 32104; “≦0.003 μg/ml” against S. aureus, 209P. For the same molecule, the MIC was 0.025 mg/L (≈ 0.0534 µM) in the assay on S. aureus, 870307; “≦0.003 μg/ml” in the assay with S. epidermidis, 56500; 0.006 mg/L (≈ 0.0128 µM) against S. flexneli, 2A 5503 (S. flexneli, 2A 5503); 0.10 mg/L (≈ 0.213 µM) in the assay on S. maltophilia, IID-1275; “≦0.003 μg/ml” in the assay on S. pneumoniae, J24; 0.20 mg/L (≈ 0.427 µM) against Ser. marcescens, 10100. Besides, the minimum inhibitory concentration (MIC) was determined as 0.025 mg/L (≈ 0.0534 µM) in [1] and 0.006 mg/L (≈ 0.0128 µM) in the assay on Str. pyogenes, G-36.

With `COc1c(N2CCC(C3(N)CC(F)C3)C2)c(F)cc2c(=O)c(C(=O)O)cn([C@@H]3C[C@@H]3F)c12` (stereo partly drawn) [Inventive Example 6, 7-[3-(3-Amino-1-fluoro-cyclobutan-3-yl)-pyrrolidin-1-yl]-6-fluoro-1-[2-(S)-fluoro-1-(R)-cyclopropyl]-8-methoxy-1,4-dihydro-4-oxoquinoline-3-carboxylic acid], the minimum inhibitory concentration (MIC) in the assay on E. coli, NIHJ (setting [2]) is not above 0.003 mg/L; in the assay on Pr. mirabilis, IFO-3849 (setting [3]), 0.05 mg/L (≈ 0.111 µM); in the assay with Pr. vulgaris, 08601 (setting [4]) it was 0.025 mg/L (≈ 0.0554 µM); in the assay with Ps. aeruginasa, 32121 (read-out: MIC), 0.2 mg/L (≈ 0.443 µM); in the assay on Ps. aeruginosa, 32104 (setting [5]) it was 0.39 mg/L (≈ 0.864 µM); in the assay on S. aureus, 209P (setting [6]), not above 0.003 mg/L. Moreover, the minimal inhibitory concentration (MIC) in the assay on S. aureus, 870307 (setting [6]) is 0.025 mg/L (≈ 0.0554 µM); in the assay on S. epidermidis, 56500 (setting [7]) it was 0.006 mg/L (≈ 0.0133 µM); against S. flexneli, 2A 5503, 0.013 mg/L (≈ 0.0288 µM); in the assay with S. maltophilia, IID-1275 (setting [8]), 0.2 mg/L (≈ 0.443 µM); in the assay on S. pneumoniae, J24 (setting [9]), not above 0.003 mg/L; in the assay on Ser. marcescens, 10100 (setting [10]), 0.1 mg/L (≈ 0.222 µM). In addition, the minimal inhibitory concentration (MIC) in assay [1] (setting [11]) amounted to 0.025 mg/L (≈ 0.0554 µM); in the assay with Str. pyogenes, G-36 (setting [12]), 0.006 mg/L (≈ 0.0133 µM).

In the case of `Nc1c(F)c(N2CCC(C3(N)CC(F)C3)C2)c(F)c2c1c(=O)c(C(=O)O)cn2[C@@H]1C[C@@H]1F` (stereo partly drawn) [Inventive Example 7, 5-Amino-7-[3-(3-amino-1-fluoro-cyclobutan-3-yl)pyrrolidin-1-yl]-6,8-difluoro-1-[2-(S)-fluoro-1-(R)-cyclopropyl]-1,4-dihydro-4-oxoquinoline-3-carboxylic acid], the minimal inhibitory concentration (MIC) in the assay on E. coli, NIHJ (setting [2]) is not above 0.003 mg/L; in the assay with Pr. mirabilis, IFO-3849 (setting [3]), 0.025 mg/L (≈ 0.055 µM); in the assay on Pr. vulgaris, 08601 (setting [4]), 0.025 mg/L (≈ 0.055 µM); in the assay with Ps. aeruginasa, 32121 (read-out: MIC), 0.05 mg/L (≈ 0.11 µM); with Ps. aeruginosa, 32104 (setting [5]) it was 0.1 mg/L (≈ 0.22 µM); with S. aureus, 209P (setting [6]), not above 0.003 mg/L. The MIC in the assay with S. aureus, 870307 (setting [6]) is 0.006 mg/L (≈ 0.0132 µM); with S. epidermidis, 56500 (setting [7]), not above 0.003 mg/L; against S. flexneli, 2A 5503, not above 0.003 mg/L; in the assay on S. maltophilia, IID-1275 (setting [8]), 0.05 mg/L (≈ 0.11 µM); in the assay on S. pneumoniae, J24 (setting [9]), not above 0.003 mg/L; in the assay on Ser. marcescens, 10100 (setting [10]), 0.05 mg/L (≈ 0.11 µM). The minimal inhibitory concentration (MIC) in assay [1] (setting [11]) is 0.025 mg/L (≈ 0.055 µM); in the assay on Str. pyogenes, G-36 (setting [12]) it was not above 0.003 mg/L.

Values taken from patent US6448266B1, “Substituted cyclobutylamine derivatives” (Daiichi Pharmaceutical Co., Ltd., priority 1997, dated 2002).
